Source: US4072810A, “Coupled peroxides” (priority 1973, dated 1978)
Like-named read-outs stand apart in the source and are kept apart here.

Assays:
[1] = Crosslinking of polyethylene (Table I, xylene solvent extraction); details: for % Crosslinking: 30 minutes; for efficiency as crosslinking agent: in words, see Table I
Procedure: A mixture of the desired polymeric material and 0.01 mole of the difunctional coupled compound is blended together on a standard roll mill, such as used in the rubber industry. […]
The slabs are permitted to cool down and mature at room temperature for 24 hours. The mature slabs were then cut into dumbell shaped samples and tested for tensile strength on an Instron Tensile Tester, following ASTM procedure as described in D412-61T "Tension Testing of Vulcanized Rubber" or the crosslinking in the case of polyethylene is determined by the solvent extraction procedure. In addition to the polymer-peroxide mixture, the crosslinkable mixture, may contain co-agents such as sulfur, promoters, fillers, and reinforcing materials. Desirable fillers are carbon black, titanium dioxide, calcium silicate and alkaline earth metal carbonates.
In Table I the crosslinking ability of the coupled compounds of our invention in polyethylene are compared to a hydroxy-containing peroxide and to difunctional peroxides. Tables II, III, and IV show the versatility of the product of our invention in urethane rubber, ethylene-propylene rubber and silicone rubber.
The polyethylene used for this test was a low density polyethylene
Bakelite DYNH-1, having the following physical properties:
The crosslinking test was carried out at 340° and 375° F.
(1) The percentage crosslinking was determined by extraction of the
crosslinked sample with refluxing xylene. In all cases the polyethylene
charge was 100% extractable before crosslinking.
(2) Based on number of active oxygens per mole.

[2] = Volatility and thermal stability of peroxides (in words); format: physicochemical
Source text: Some of the desirable properties that a peroxide has to have to be useful for crosslinking polyethylene are: low volatility, high thermal stability, and good efficiency with respect to its active oxygen content.
The volatility and the thermal stability are necessary requisites, since the peroxide has to tolerate the high temperatures of the milling operation, which is a necessary step to incorporate the peroxide with the polymer before the crosslinking process. If the peroxide is too volatile (as in the case of di-t-butyl peroxide) there would not be any peroxide left for the crosslinking process at the end of the milling step. If the peroxide is not volatile, but its thermal stability is low, a premature decomposition of the peroxide will take place during the milling step, which results in a premature crosslinking of the polymer. If this happens, the polymer cannot be shaped or formed any further since the thermoplastic polymer has become thermoset too soon.

[3] = Half-life of coupled and uncoupled hydroxy-peroxides in benzene; format: physicochemical; details: for t1/2: benzene, 0.1 molar, 100000 µM; for half-life relative to the hydroxy containing peroxide precursors: in words, see Example XVI
Source text: Half-Life Comparisons of Coupled and Uncoupled Hydroxy-Peroxides (Carried out in Benzene at 0.1 molar concentrations)

[4] = Initiation of vinyl monomer (styrene) polymerization
Procedure: This example illustrates the use of coupled peroxides of present disclosures as initiators of vinyl monomer polymerization. Compound [B] (from Example V) at a concentration of 5 × 10^-4 moles per deciliter of styrene, polymerized styrene at 100° C. at a rate of 6.20 × 10^-3 moles per liter per minute. When no initiator is present, the thermal polymerization of styrene at 100° C. proceeds at a rate of 2.82 × 10^-3 moles per liter per minute. Compound [A] (from Examples I, II, and III) at a concentration of 5 × 10^-4 moles per diciliter of styrene polymerized styrene 1.65 faster at 115° C. than the thermal polymerization rate when no polymerization initiator is present.

[5] = S.P.I. exotherm, curing an unsaturated polyester-styrene resin (Table V); details: 1% concentration; for Cure Time / Gel Time: 115° C.; for Peak: exotherm at 115° C.
Procedure: An unsaturated polyester resin was made by reacting maleic anhydride (1.0 mole), phthalic anhydride (1.0 mole), and propylene glycol (2.2 mole) until an acid number of 45-50 was obtained. To this was added hydroquinone at a 0.013% concentration. Seven parts of this unsaturated polyester was diluted with 3 parts of monomeric styrene to obtain a homogeneous blend having a viscosity of 13.08 poise and a specific gravity of 1.14. To 20 g. of this blend was added the 0.2 g. of the desired coupled peroxide and the resulting composition placed in a constant temperature bath at 115° C.
The internal temperature was recorded as function of time. The following results were obtained with some of the coupled compounds (Table V):
S.P.I. EXOTHERM AT 115° C. AND 1% CONCENTRATION
IN POLYESTER RESIN PREPARED IN EXAMPLE VIII

[6] = in words; milling step; cited from earlier work

CC(C)(C)OOC(C)(C)CCC(C)(C)OOC(C)(C)C [2,5-dimethyl-2,5-di(t-butylperoxy)-hexane]
% Crosslinking ([1]; 340° F., 0.010 molar equivs.): 85.9% | % Crosslinking ([1]; 340° F., 0.015 molar equivs.): 89.3% | % Crosslinking ([1]; 375° F., 0.010 molar equivs.): 84.5% | % Crosslinking ([1]; 375° F., 0.015 molar equivs.): 88.0% | efficiency as crosslinking agent [1]: not as efficient in utilizing their active oxygen content as the difunctional peroxide of our invention

CC(C)(C)OOC(C)(C)C#CC(C)(C)OOC(C)(C)C [2,5-dimethyl-2,5-di(t-butylperoxy)-hexyne-3]
% Crosslinking ([1]; 340° F., 0.010 molar equivs.): 81.8% | % Crosslinking ([1]; 340° F., 0.015 molar equivs.): 86.0% | % Crosslinking ([1]; 375° F., 0.010 molar equivs.): 84.9% | % Crosslinking ([1]; 375° F., 0.015 molar equivs.): 87.7% | efficiency as crosslinking agent [1]: not as efficient in utilizing their active oxygen content as the difunctional peroxide of our invention

CC(O)CC(C)(C)OOC(C)(C)C (stereo not drawn) [2-Methyl-2-(t-butylperoxy)-4-pentanol]
thermal stability [2]: good | volatility [2]: low | t1/2 ([3]; 115° C.): 13.6 h | % Crosslinking ([1]; 340° F., 0.015 molar equivs.): 78.4% | % Crosslinking ([1]; 375° F., 0.015 molar equivs.): 75.4% | efficiency as crosslinking agent [1]: poor

CC(CC(C)(C)OOC(C)(C)C)OC(=O)OC(C)CC(C)(C)OOC(C)(C)C (stereo not drawn) [Di[1,3-dimethyl-3-(t-butylperoxy)butyl] carbonate]
styrene polymerization, faster than the thermal polymerization rate when no initiator is present ([4]; 115° C., 5 × 10^-4 moles per diciliter of styrene): 1.65 | Cure Time [5]: 11.1 min | Gel Time [5]: 9.5 min | Peak [5]: 455 ° F | t1/2 ([3]; 115° C.): 26.8 h | half-life relative to the hydroxy containing peroxide precursors [3]: almost double | % Crosslinking ([1]; 340° F., 0.010 molar equivs.): 89.3% | % Crosslinking ([1]; 375° F., 0.010 molar equivs.): 89.7%

CC(CC(C)(C)OOC(C)(C)C)OC(=O)CCC(=O)OC(C)CC(C)(C)OOC(C)(C)C (stereo not drawn) [Di[1,3-dimethyl-3-(t-butylperoxy)butyl]succinate]
% Crosslinking ([1]; 340° F., 0.010 molar equivs.): 88.9% | % Crosslinking ([1]; 375° F., 0.010 molar equivs.): 89.2%

CC(C)(C)OOC(=O)CCOC(=O)OCCC(=O)OOC(C)(C)C [Di[2-(t-butylperoxycarbonyl)ethyl]carbonate]
rate of styrene polymerization ([4]; 100° C., 5 × 10^-4 moles per deciliter of styrene): 6.20 × 10^-3 moles per liter per minute | Cure Time [5]: 8.5 min | Gel Time [5]: 7.1 min | Peak [5]: 450 ° F | t1/2 ([3]; 100° C.): 30.7 h | half-life relative to the hydroxy containing peroxide precursors [3]: almost double

CC(CC(C)(C)OOC(C)(C)C)OC(=O)OCCOC(=O)OC(C)CC(C)(C)OOC(C)(C)C (stereo not drawn) [Ethylene Bis[1,3-dimethyl-3-(t-butylperoxy)-butyl carbonate]]
Cure Time [5]: 12.8 min | Gel Time [5]: 10.8 min | Peak [5]: 450 ° F | % Crosslinking ([1]; 340° F., 0.010 molar equivs.): 87.9% | % Crosslinking ([1]; 375° F., 0.010 molar equivs.): 87.4%

CC(C)(C)OOC(C)(C)C [di-t-butyl peroxide]
volatility [6]: too volatile

CC(C)(C)OOC(=O)CCO [t-butylperoxy 3-hydroxypropionate, reference compound]
t1/2 ([3]; 100° C.): 13.0 h
